Data on 15 molecules can be found in US3991202A, “Imidazolium salts” (Janssen Pharmaceutica N.V., priority 1974, dated 1976).

Common to all, as to assay: Antibacterial growth inhibition in phenol red dextrose broth
What all share (type): cell-based

The test system of experiment [1] is Staphylococcus hemolyticus. The following applies: 168 h, Staph., tested at 100, 10, 1 μg/ml, read-out: Concentration in μ g for 100% Growth Inhibition. As for the experimental part: (§1) The tests on bacteria were performed on cultures on phenol red dextrose broth medium (Difco). By using decimal dilution techniques described for the tests for antifungal activity, test media containing 100 μg, 10 μg and 1 μg of imidazolium salt per milliliter of medium were obtained. The inoculum consisted of a platinum loop (5 mm diameter) from a 24 hour broth culture. Forty-eight hours after incubation, subcultures were made from each culture for the determination of antibacterial activity of the imidazolium salts. After seven days of incubation, observations were made to determine the presence or absence of bacterial growth.

The test system of experiment [2] is Pseudomonas aeruginosa. The following applies: 168 h, Ps. aer., tested at 100, 10, 1 μg/ml, read-out: Concentration in μ g for 100% Growth Inhibition. How it is done:
as §1

The subject of experiment [3] is Erysipelothrix insidiosa. To be noted: Erysipelothrix rhusiopathiae, 168 h; E. ins.; tested at 100, 10, 1 μg/ml; read-out: Concentration in μ g for 100% Growth Inhibition. As for the experimental part:
as §1

For experiment [4], the system named is Escherichia coli. The following applies: 168 h, E. coli, tested at 100, 10, 1 μg/ml, read-out: Concentration in μ g for 100% Growth Inhibition. As for the experimental part:
as §1

The test system of experiment [5] is Salmonella pullorum gallinarum. The following applies: Salmonella enterica, 168 h; Sp. G.; tested at 100, 10, 1 μg/ml; read-out: Concentration in μ g for 100% Growth Inhibition. How it is done: as §1
Experiment [6] has as its system Streptococcus pyogenes. The following applies: 168 h, Strep., tested at 100, 10, 1 μg/ml, read-out: Concentration in μ g for 100% Growth Inhibition. How it is done:
as §1

Consider `CCCCOC(Cn1cc[n+](CC(=O)Nc2ccc(F)cc2)c1)c1ccccc1Cl` (stereo not drawn) [C6H4oCl/nC4H9/CH2CONHC6H4pF], for which the MIC in experiment [1] was found to be 100 µg/mL; in experiment [2], 100 µg/mL; in experiment [3] it was 10 µg/mL; in experiment [4], 100 µg/mL; in experiment [5], 100 µg/mL; in experiment [6] it was 10 µg/mL.

`Cc1ccccc1NC(=O)C[n+]1ccn(CC(OCc2c(Cl)cccc2Cl)c2ccc(Cl)cc2Cl)c1` (stereo not drawn) [1-[2,4-dichloro-β-(2,6-dichlorobenzyloxy)phenethyl]-3-(N-o-tolylcarbamoylmethyl)imidazolium chloride]: the MIC in experiment [1] is 10 µg/mL; in experiment [2] it was 100 µg/mL; in experiment [3], 10 µg/mL; in experiment [4], 100 µg/mL; in experiment [5] it was 10 µg/mL; in experiment [6], 1 µg/mL.

Regarding `Clc1ccc(COC(C[n+]2ccn(CCNc3ccccc3)c2)c2ccc(Cl)cc2Cl)c(Cl)c1.[Br-]` (stereo not drawn) [(CH2)2NHC6H5, 1-(2-Anilinoethyl)-3-[2,4-dichloro-β-(2,4-dichlorobenzyloxy)phenethyl]imidazolium bromide], the MIC in experiment [1] came out at 1 µg/mL; in experiment [2], 100 µg/mL; in experiment [3], 1 µg/mL; in experiment [4] it was 10 µg/mL; in experiment [5] it was 10 µg/mL; in experiment [6] it was 1 µg/mL.

Take `Cc1ccc(C[n+]2ccn(CC(OCc3ccc(Cl)cc3Cl)c3ccc(Cl)cc3Cl)c2)cc1.[Br-]` (stereo not drawn) [CH2C6H4pCH3, 1-[2,4-Dichloro-β-(2,4-dichlorobenzyloxy)phenethyl]-3-(p-methylbenzyl)imidazolium bromide]: the MIC in experiment [1] came out at 1 µg/mL; in experiment [2] it was 100 µg/mL; in experiment [3] it was 10 µg/mL; in experiment [4], 10 µg/mL; in experiment [5], 100 µg/mL; in experiment [6] it was 1 µg/mL.

For the molecule `COc1ccccc1NC(=O)C[n+]1ccn(CC(OCc2ccc(Cl)cc2Cl)c2ccc(Cl)cc2Cl)c1` (stereo not drawn) [CH2CONHC6H4oOCH3, 1-[2,4-dichloro-β-(2,4-dichlorobenzyloxy)phenethyl]-3-[N-(o-methoxyphenyl)carbamoylmethyl]imidazolium chloride hydrate], the MIC is 1 µg/mL in experiment [1]; 100 µg/mL in experiment [2]; 1 µg/mL in experiment [3]; 10 µg/mL in experiment [4]; 10 µg/mL in experiment [5]; 1 µg/mL in experiment [6].

In the case of `Clc1ccc(Cn2cc[n+](CC(OCc3c(Cl)cccc3Cl)c3ccc(Cl)cc3Cl)c2)c(Cl)c1.[Cl-]` (stereo not drawn) [1-(2,4-Dichlorobenzyl)-3-[2,4-dichloro-β-(2,6-dichlorobenzyloxy)phenethyl]imidazolium chloride], the MIC turned out to be 1 µg/mL in experiment [1]; 100 µg/mL in experiment [2]; 1 µg/mL in experiment [3]; 10 µg/mL in experiment [4]; 10 µg/mL in experiment [5]; 1 µg/mL in experiment [6].

Regarding `OC(Cn1cc[n+](CC(OCc2ccc(Cl)cc2Cl)c2ccc(Cl)cc2Cl)c1)c1ccc(Cl)cc1.[Br-]` (stereo not drawn) [CH2CHOHC6H4pCl, 1-(p-chloro-β-hydroxyphenethyl)-3-[2,4-dichloro-β-(2,4-dichlorobenzyloxy)phenethyl]imidazolium bromide], the MIC was 1 µg/mL in experiment [1]; 100 µg/mL in experiment [2]; 1 µg/mL in experiment [3]; 10 µg/mL in experiment [4]; 10 µg/mL in experiment [5]; 1 µg/mL in experiment [6].

`Cc1ccc(CNC(=O)C[n+]2ccn(CC(OCc3ccc(Cl)cc3Cl)c3ccc(Cl)cc3Cl)c2)cc1` (stereo not drawn) [CH2CONHCH2C6H4pCH3, 1-[2,4-Dichloro-β-(2,4-dichlorobenzyloxy)phenethyl]-3-[N-(p-methylbenzyl)carbamoylmethyl]imidazolium chloride]: the MIC in experiment [1] worked out at 10 µg/mL; in experiment [2], 100 µg/mL; in experiment [3], 10 µg/mL; in experiment [4] it was 10 µg/mL; in experiment [5] it was 10 µg/mL; in experiment [6] it was 10 µg/mL.

For `Cc1cc(Cl)ccc1NC(=O)CCn1cc[n+](CC(OCc2ccc(Cl)cc2Cl)c2ccc(Cl)cc2Cl)c1.[Cl-]` (stereo not drawn) [(CH2)2CONHC6H32,4(CH3,Cl), 1-{2-[N-(4-chloro-o-tolyl)carbamoyl]ethyl}-3-[2,4-dichloro-β-(2,4-dichlorobenzyloxy)phenethyl]imidazolium chloride], the MIC in experiment [1] came out at 1 µg/mL; in experiment [2], 100 µg/mL; in experiment [3], 1 µg/mL; in experiment [4], 100 µg/mL; in experiment [5], 10 µg/mL; in experiment [6], 1 µg/mL.

For the molecule `O=C(C[n+]1ccn(CC(OCc2c(Cl)cccc2Cl)c2ccc(Cl)cc2Cl)c1)Nc1ccc(F)cc1` (stereo not drawn) [1-[2,4-dichloro-β-(2,6-dichlorobenzyloxy)phenethyl]-3-[N-(p-fluorophenyl)carbamoylmethyl]imidazolium chloride], the MIC in experiment [1] was determined as 1 µg/mL; in experiment [2] it was 100 µg/mL; in experiment [3] it was 1 µg/mL; in experiment [4], 10 µg/mL; in experiment [5], 10 µg/mL; in experiment [6], 1 µg/mL.

As to `Clc1ccc(COC(Cn2cc[n+](CCc3ccccc3)c2)c2ccc(Cl)cc2Cl)c(Cl)c1.[Br-]` (stereo not drawn) [(CH2)2C6H5, 1-[2,4-Dichloro-β-(2,4-dichlorobenzyloxy)phenethyl]-3-phenethylimidazolium bromide], the MIC in experiment [1] is 1 µg/mL; in experiment [2] it was 100 µg/mL; in experiment [3], 1 µg/mL; in experiment [4], 10 µg/mL; in experiment [5] it was 10 µg/mL; in experiment [6], 1 µg/mL.

For the molecule `Fc1ccc(C(c2ccccc2)[n+]2ccn(CC(OCc3ccc(Cl)cc3Cl)c3ccc(Cl)cc3Cl)c2)cc1` (stereo not drawn), the MIC turned out to be 1 µg/mL in experiment [1]; 100 µg/mL in experiment [2]; 1 µg/mL in experiment [3]; 10 µg/mL in experiment [4]; 10 µg/mL in experiment [5]; 1 µg/mL in experiment [6].

For the molecule `COc1ccc(NC(=O)C[n+]2ccn(CC(OCc3ccc(Cl)cc3Cl)c3ccc(Cl)cc3Cl)c2)cc1` (stereo not drawn) [CH2CONHC6H4pOCH3], the MIC in experiment [1] was found to be 1 µg/mL; in experiment [2], 100 µg/mL; in experiment [3] it was 1 µg/mL; in experiment [4] it was 10 µg/mL; in experiment [5], 10 µg/mL; in experiment [6], 1 µg/mL.

For the molecule `Cc1ccccc1NC(=O)C[n+]1ccn(CC(OCc2ccc(Cl)cc2)c2ccc(Cl)cc2)c1` (stereo not drawn) [C6H4pCl/CH2C6H4pCl/CH2CONHC6H4oCH3, 1-[p-Chloro-β-(p-chlorobenzyloxy)phenethyl]-3-(N-o-toylcarbamoylmethyl)imidazolium chloride], the MIC in experiment [1] came out at 10 µg/mL; in experiment [2], 100 µg/mL; in experiment [3] it was 10 µg/mL; in experiment [4], 100 µg/mL; in experiment [5], 100 µg/mL; in experiment [6], 10 µg/mL.

Regarding `CC(C(=O)Nc1cccc(Cl)c1)[n+]1ccn(CC(OCc2ccc(Cl)cc2Cl)c2ccc(Cl)cc2Cl)c1` (stereo not drawn) [CH(CH3)CONHC6H4mCl, 1-{1-[N-(m-Chlorophenyl)carbamoyl]ethyl 56-3-[2,4-dichloro-β-(2,4-dichlorobenzyloxy)phenethyl]imidazolium bromide], the MIC in experiment [1] amounted to 1 µg/mL; in experiment [2] it was 100 µg/mL; in experiment [3], 1 µg/mL; in experiment [4], 100 µg/mL; in experiment [5], 100 µg/mL; in experiment [6], 1 µg/mL.
